Assay results published in patent US20250345350A1, “TREATING PAIN ASSOCIATED WITH CENTRAL SENSITIZATION” (Medicon Pharmaceuticals, Inc., priority 2022, published 2025).
Like-named read-outs stand apart in the source and are kept apart here.

Columns and labels:
[1] = tested on: vincristine-induced pain associated with central sensitization in C57BL/6J mice; assay: Mechanical allodynia (von Frey), vincristine-induced pain, topical PS 8% (Example 2); format: in vivo, mouse
Text: Food and water were available ad libitum.
Protocol for the Treatment of Established Pain Associated with Central Sensitization with PS
Paw withdrawn, licking or shaking were considered positive responses.

[2] = Safety of PS ointment applied to hind paws of mice; format: in vivo, mouse; conditions: PS ointment thrice daily to the hind paws of mice for up to 22 days
Text: This finding is in keeping with the known safety profile of PS.

[3] = tested on: paclitaxel-induced central sensitization in C57/BL/6J mice; assay: Cold allodynia (acetone test), paclitaxel model (Example 3); format: in vivo, mouse; conditions: PS 5% for 15 days; day 15
Experimental: To determine the outcome of treatment, assessment of mechanical allodynia was performed. […] Both methods of assessing allodynia are described in Toma W, et al. Neuropharmacology 2017; 117:305-15. Mechanical and cold allodynia are determined at least one day apart in the same animal.
The acetone test was used. Briefly, acetone was applied onto the plantar surface of each hind paw. The time each mouse spent licking, lifting, and/or shaking the hind paw recorded over 60 seconds was the score for cold allodynia. Measurements were performed on day-8 (before the first paclitaxel injection), the day of starting treatment (day 0) and then on day 15.

[4] = tested on: paclitaxel-induced CIPN in C57BL/6J mice; assay: PWT (von Frey), mouse model of CIPN, oral administration (Example 5); format: in vivo; conditions: day 7; oral gavage three times a day for 7 days, PS 50 mg/kg, sulindac 33 mg/kg
Text: CIPN was induced in mice with chemotherapeutic agents using established protocols (Carozzi et al, 2010; Currie et al, 2019; Eldridge et al, 2020). […] This dosing regimen of paclitaxel produces pain associated with CIPN with time courses that are similar to those of pain after paclitaxel administration in cancer patients.
Group 1: naive mice (i.e. no paclitaxel, n=8) • 2. Group 2: paclitaxel only (n=8) • 3. Group 3: paclitaxel plus vehicle (n=8) • 4. […] Group 5: paclitaxel plus sulindac (n=8)
The PWT test was performed on day 7.

[5] = tested on: chronic constriction injury-induced peripheral neuropathy in C57BL/6J mice; assay: Thermal allodynia PWL, chronic constriction injury model of PTPN, topical (Example 7); format: in vivo, mouse; conditions: PS 5% topical
[6] = tested on: chronic constriction injury-induced PTPN in C57BL/6J mice; assay: PWT of operated limb, PS applied to contralateral hind paw, PTPN model (Example 8); format: in vivo, mouse
Experimental: Group 2: vehicle control (n=6) • 3. Group 3: PS 8% (n=6)
The PWT test was performed on day 4.
Additionally, in a second study, the speed at which PS can treat pain associated with PTPN was assessed by assessing the effect of PS on mechanical allodynia shortly after topical administration of PS. As above, PTPN was induced using chronic constriction injury, by ligating the left sciatic nerve, to induce neuropathic pain manifested as allodynia affecting the left limb of the mice. PS (as a 5% gel) was applied only once onto the contralateral (right) hind paw of mice, prior to determining mechanical allodynia on the operated limb at different time points post-dosing.
Group 2: PS 5%, assessed at t=0.5 h post-dosing (n=5) • 3. Group 3: PS 5%, assessed at t=1.0 h post-dosing (n=5) • 4. Group 4: PS 5%, assessed at t=2.0 h post-dosing (n=5)

[7] = Pharmacokinetics and biodistribution of PS upon oral administration (Example 27); format: in vivo, rat; conditions: rats, single oral dose of PS 250 mg/kg; for AUC(0-t) / Cmax / half-life: Sprague-Dawley, rat; for AUC(0-t): read-out: AUC0-24 h; for Cmax: read-out: Cmax, Mean ± SEM
Experimental: Approximately 800 μL of blood were collected through cardiac puncture and immediately centrifuged.
Tissue samples were harvested using separate dissection instruments for each tissue sample to avoid cross contamination, and snap frozen. The levels of the test drug were determined by HPLC.
As previously described (Wen et al, 2019), each plasma sample was mixed with double volume of acetonitrile and centrifuged at 13,200 rpm for 15 min. Tissue samples were weighed, ddH2O (100-300 μL, depending on tissue weight) was added, and they were homogenized. Following addition of acetonitrile (twice the volume of the homogenate), the mixture was sonicated for 10 min, centrifuged at 13,200 rpm for 15 min, and analyzed by HPLC, as reported (Wen et al, 2019).
Briefly, the HPLC system consisted of a Waters Alliance 2695 Separations Module (Milford, MA, USA) equipped with a Waters 2998 photodiode array detector (328 nm) and a Thermo Hypersil BDS C18 column (150×4.6 mm, particle size 3 pm). The mobile phase consisted of a gradient between solvent A (formic acid, CH3CN, H2O (0.1:4.9:95 v/v/v)) and solvent B (CH3CN) at a flow rate of 1 mL-min−1 at 30° C. We applied gradient elution from 30 to 100% solvent B from 0-6 min, and it was maintained at 100% solvent B until 8 min.

[8] = Preliminary in vivo evidence, topical PS hydrogel, PTPN (Example 6)
[9] = Preliminary in vivo evidence, topical PS hydrogel, migraine pain (Example 12)
[10] = Preliminary in vivo evidence, topical PS hydrogel, PHN (Example 19)
[11] = PS to outer surface of the eyelid in a subject after LASIK (Example 22); format: in vivo; conditions: topical PS to the outer surface of the eyelid, one subject
COX-1 = COX-1 (Homo sapiens, UniProt P23219); conditions: background statement; cited from earlier work
[12] = tested on: NTG-induced migraine in mice; assay: PWT (von Frey), NTG-induced migraine mouse model, oral (Example 14); conditions: 30 min after oral dose given 30 min after NTG; PS 50 mg/kg, sulindac 33 mg/kg
Experimental: In line with the earlier Examples, migraine was induced using 0.4 mg of NTG was administered sublingually in the form of a finely crushed 0.4 mg NTG tablet (Greenstone Brand).
Group 1: baseline (i.e, no NTG treatment, n=6) • 2. Group 2: vehicle (n=6) • 3. […] Group 4: sulindac (n=6)
Mechanical allodynia was determined using the method of von Frey filaments in line with that performed in the earlier Examples. […] The mechanical threshold, expressed as g, indicates the force of the von Frey filament to which the animal reacted.

[13] = tested on: paclitaxel-induced central sensitization in C57/BL mice; assay: Paw withdrawal threshold (von Frey), paclitaxel model, topical PS (Example 1); conditions: day 10, about 30 min after last application; PS 8% hydrogel topically to both hind paws 3 times a day for 10 days
Experimental: The paclitaxel was administered into all study groups once a day for 3 days.
The first doses were administered 2 days after the last administration of paclitaxel.
The study groups were as follows: • 1. Group 1: paclitaxel only (n=9) • 2. Group 2: paclitaxel plus vehicle (n=10) • 3.
In order to determine the outcome of the treatment, pain threshold responses were measured using the well-established method of von Frey filaments. […] The results of the PWT test are expressed as force applied (gm). […] The data is expressed as percent change from the respective baseline value.

[14] = tested on: chronic constriction injury-induced peripheral neuropathy in C57BL/6J mice; assay: PWT (von Frey), chronic constriction injury model of PTPN, topical (Example 7); conditions: day 14; PS 5% gel or sulindac 0.7% gel on left paw three times a day for 14 days; pregabalin once by oral gavage 1 h before
Experimental: Group 1: ligation only (i.e, surgical control with no treatment, n=5-7) • 2. Group 2: vehicle control (n=5-7) • 3. […] Group 4: 0.7% sulindac (n=5-7) • 5.
Briefly, for determining mechanical allodynia, pain threshold responses were measured using the well-established method of von Frey filaments in line with that performed in the earlier Examples. The PWT test was performed on day 14. The mechanical threshold, expressed as g, indicates the force of the von Frey filament to which the animal reacted.

[15] = tested on: paclitaxel-induced CIPN in C57BL/6J mice; assay: Thermal allodynia PWL (radiant heat), mouse model of CIPN, oral administration (Example 5); conditions: day 16 of treatment, oral PS 50 mg/kg, sulindac 33 mg/kg
Text: Group 1: paclitaxel plus vehicle (n=8) • 2. […] Group 3: paclitaxel pluse sulindac (n=8)
The animal is placed into a plastic box with an elevated glass floor. The beam of the lamp probe is focused on the paw plantar surface, until the animal withdraws the paw, and sensors in the device shut off the lamp. The thermal allodynia threshold is defined as the latency time until paw withdrawal (PWL) and expressed in seconds (sec) or thermal allodynia threshold.

Sequence of COX-1 (P23219 24-599): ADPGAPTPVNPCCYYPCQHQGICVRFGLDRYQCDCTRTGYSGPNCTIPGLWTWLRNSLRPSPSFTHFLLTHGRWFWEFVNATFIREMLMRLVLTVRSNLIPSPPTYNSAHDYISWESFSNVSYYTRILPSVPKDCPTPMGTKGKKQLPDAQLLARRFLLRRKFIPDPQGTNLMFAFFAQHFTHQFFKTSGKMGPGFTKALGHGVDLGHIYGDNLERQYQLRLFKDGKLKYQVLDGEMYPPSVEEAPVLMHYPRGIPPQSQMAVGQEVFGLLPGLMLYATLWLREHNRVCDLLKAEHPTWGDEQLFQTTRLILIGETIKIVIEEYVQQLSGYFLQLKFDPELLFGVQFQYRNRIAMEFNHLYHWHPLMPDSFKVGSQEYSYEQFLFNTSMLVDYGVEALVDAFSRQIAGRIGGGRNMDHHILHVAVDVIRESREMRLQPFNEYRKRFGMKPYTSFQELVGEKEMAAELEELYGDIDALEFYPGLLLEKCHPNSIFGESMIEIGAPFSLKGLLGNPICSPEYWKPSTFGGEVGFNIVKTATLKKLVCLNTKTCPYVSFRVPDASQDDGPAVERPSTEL

CCOP(=O)(OCC)OCCCCOC(=O)CC1=C(C)/C(=C/c2ccc([S+](C)[O-])cc2)c2ccc(F)cc21 (stereo not drawn) [PS, phosphosulindac]
increase of allodynia score compared to day 0 ([1]; PS 8% ointment 3x/day for 16 days): 114% | mechanical allodynia score, mean±SEM ([1]; day 16): 1.5 ± 0.09 g | topical or systemic side effects [2]: no topical or systemic side effects | cold allodynia score (acetone test) [3]: 3.1 ± 0.4 s | PWT, g Mean ± SEM [4]: 0.99 ± 0.13 g | PWL, sec Mean ± SEM [5]: 9.1 ± 2.9 s | PWT, g Mean ± SEM ([6]; day 4, operated left limb, PS 8% gel on contralateral (right) hind paw 3 times a day for 4 days): 1.16 ± 0.04 g | PWT, g Mean ± SEM ([6]; t = 0.5 h post-dosing, PS 5% gel applied once on contralateral hind paw): 1.24 ± 0.10 g | PWT, g Mean ± SEM ([6]; t = 1.0 h post-dosing, PS 5% gel applied once on contralateral hind paw): 1.16 ± 0.16 g | PWT, g Mean ± SEM ([6]; t = 2.0 h post-dosing, PS 5% gel applied once on contralateral hind paw): 1.10 ± 0.19 g | AUC(0-t) ([7]; cerebellum): 0.2 µM·h | Cmax ([7]; cerebellum): 300 ± 70 nM | AUC(0-t) ([7]; medulla): 0.3 µM·h | Cmax ([7]; medulla): 500 ± 100 nM | half-life ([7]; stomach): 3.3 h | AUC(0-t) ([7]; stomach): 1280 µM·h | Cmax ([7]; stomach): 661000 ± 6500 nM | half-life ([7]; vagus nerve): 3.3 h | AUC(0-t) ([7]; vagus nerve): 1.7 µM·h | Cmax ([7]; vagus nerve): 1200 ± 200 nM | detection in the systemic circulation [7]: No PS was detected | analgesic effect on neuropathic pain associated with PTPN [8]: striking analgesic effect | analgesic effect on migraine pain [9]: striking analgesic effect | analgesic effect on neuropathic pain associated with PHN [10]: striking analgesic effect | effect on chronic pain after LASIK [11]: dramatically reduced chronic pain | inhibition of COX-1 (COX-1): does not inhibit | PWT, g Mean ± SEM [12]: 1.96 ± 0.49 g | PWT, % baseline Mean ± SEM [13]: 102.55 ± 4.92 % baseline | PWT, g Mean ± SEM [14]: 1.30 ± 0.15 g | PWL, sec Mean ± SEM [15]: 10.78 ± 1.1 s
